What all share (assay): inhibition of tumour cell growth, NCI panel, 48 h
The test system of assay [1] is 786-0 renal.
The test system of assay [2] is HCT-15 colon.
Assay [3] has as its system HOP-62 NSCLC.
The test system of assay [4] is K-562 leukemia.
Assay [5] deals with MOLT-4 leukemia.
The test system of assay [6] is OVCAR-4 ovarian.
In assay [7] the test system is OVCAR-8 ovarian.
Assay [8] has as its system SF-539 CNS.
The subject of assay [9] is SK-OV-3 ovarian.
The subject of assay [10] is UO-31 renal.

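Following 48 hours of exposure in 96-well plates, responses at five concentrations were used to interpolate endpoints linearly. GI50: concentration for 50% inhibition of growth. Definition used: TGI = concentration required for complete inhibition of growth.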

`COc1ccc2c(c1)CCN1C3=C(CCC3)C(=O)C[C@@H]21`: the TGI in assay [1], in assay [2], in assay [3], in assay [4], in assay [5] and in assay [6] was over 100 µM each time. Besides, the TGI in assay [7], in assay [8], in assay [9] and in [10] was over 100 µM each time.

Consider `O=C1C=C2CC[C@H]3[C@@H]4CC[C@H](Oc5c6ccccc6nc6ccccc56)[C@H]4CC[C@@H]3[C@H]2CC1`, for which the TGI in assay [1], in assay [2], in assay [3], in assay [4], in assay [6] and in assay [7] was over 100 µM throughout. Also, the TGI in assay [8] and in [9] was over 100 µM each time.

Consider `O=C(CCc1ccc(O)cc1)NCCCNC(=O)CCc1ccc(O)cc1`, for which the TGI in assay [1], in assay [2], in [3], in assay [4], in [5] and in assay [6] was over 100 µM throughout. The TGI in assay [7], in assay [8], in [9] and in [10] was over 100 µM in each case.

Turning to `O=C1CCCN1CCCN=c1cc2n(-c3ccc(Cl)cc3)c3ccccc3nc-2cc1Nc1ccc(Cl)cc1`, the TGI turned out to be 20 µM in assay [2]; 29.5 µM in assay [3]; 30 µM in assay [4]; 27 µM in assay [5]; 21.8 µM in [6]; 53.2 µM in assay [7]. For the same molecule, the figures for the TGI in assay [8], in assay [9] and in [10] were 28.2 µM, 80.7 µM and 51.3 µM, respectively.

Turning to `Cc1ccc(S(=O)(=O)N2CCCSCCN(S(=O)(=O)c3ccc(C)cc3)CCCSCC2)cc1`, the TGI in [1], in [3], in assay [4], in [5], in [6] and in assay [7] was over 100 µM each time. In addition, the TGI in assay [8], in assay [9] and in assay [10] was over 100 µM each time.

`CCCCN1C(=O)CS/C1=N/Nc1nc2c([nH]1)c(=O)n(C)c(=O)n2C`: the TGI in assay [1] is 41.7 µM; in [2], over 100 µM; in assay [3], over 100 µM; in [4] it was over 100 µM; in assay [5], 64.7 µM; in assay [6] it was 71.4 µM. Moreover, the TGI in [8], in [9] and in [10] was over 100 µM in each case.

Regarding `C[C@]12CCc3sc(-c4cccc(F)c4)nc3C1=CC[C@@H]1[C@@H]2CC[C@]2(C)C(=O)CC[C@@H]12`, the GI50 in assay [2] was 1.56 µM; in [3], 3.1 µM; in assay [4], 1.82 µM; in assay [5], 1.69 µM; in assay [6], 5.51 µM; in [7] it was 3.45 µM. The GI50 in [8] was 1.04 µM; in assay [9] it was 2.91 µM; in [10], 1.61 µM. The TGI was 4.17 µM in assay [2]; 11.8 µM in assay [3]; 9.08 µM in assay [4]; 7.89 µM in assay [5]; over 100 µM in assay [6]; over 100 µM in assay [7]. The TGI in [8] amounted to 2.48 µM; in [9], 9.13 µM; in assay [10], 2.98 µM.

For the molecule `NC(=O)SCC(=O)Nc1ccc2ncccc2c1`, the TGI is 67.6 µM in [1]; over 100 µM in assay [2]; over 100 µM in assay [3]; over 100 µM in assay [4]; over 100 µM in assay [6]; over 100 µM in assay [7]. Also, the TGI in assay [8], in [9] and in assay [10] was over 100 µM throughout.

Take `O=[p+]1c2ccccc2[nH]c2ccccc21`: the TGI in assay [1], in assay [2], in assay [3], in [4], in assay [5] and in assay [6] was over 100 µM each time. Besides, the TGI in assay [7], in assay [8] and in assay [9] was over 100 µM in each case.

Consider `COC(=O)C1C(O)C(C)C(O)OC1C(C)C(O)C(C)/C=C\C=C(/C)C(=O)Nc1c(C)c(OC(C)=O)c2c(c1O)C(=O)C(C)=C1OCOC(/C(C)=C/C(C)=O)=C12` (stereo unspecified), for which the TGI in assay [2] was 29 µM; in assay [3], 23.5 µM; in assay [4], 51.1 µM; in assay [5], 33.3 µM; in assay [6], 23 µM; in assay [7] it was 30.7 µM. Further, the TGI in [8] stood at 23.7 µM; in assay [9] it was 40.2 µM; in assay [10], 25.1 µM.

As to `COc1ccccc1/C=C/c1nc2ccccc2o1`, the TGI in assay [1], in assay [2], in [3], in assay [4], in assay [5] and in [6] was over 10 µM throughout. The TGI in [7], in [8] and in [9] was over 10 µM each time.

As for `C/C(=C1\C(=O)C(c2ccccc2)N(c2ccccc2)C1=O)c1ccc(Cl)cc1` (stereo unspecified), the TGI in assay [1] was 38.6 µM; in assay [2] it was 43.6 µM; in assay [3], 84.5 µM; in [4] it was over 100 µM; in assay [5], over 100 µM; in [6] it was 42.8 µM. In addition, the TGI in [8] was determined as 48.9 µM; in assay [9], 30.8 µM; in [10], 45.8 µM.

With `O=C(c1ccccc1)c1nn(-c2ccccc2)c2nc3nc(-c4ccccc4)cc(=O)n3nc12`, the GI50 in [2] is 36.3 µM; in [3], 38 µM; in assay [4], 21.2 µM; in assay [5] it was 21.8 µM; in [6] it was 22.9 µM; in assay [7] it was 27.1 µM. Also, the GI50 in [8] was 19.2 µM; in [9], 62.2 µM; in assay [10], 25.7 µM. In addition, the TGI is over 100 µM in assay [2]; over 100 µM in assay [3]; 66.7 µM in [4]; 49.3 µM in [5]; 68.4 µM in assay [6]; 84.8 µM in assay [7]. Besides, the figures for the TGI in [8], in assay [9] and in [10] were 38.6 µM, over 100 µM and over 100 µM, respectively.

The values are drawn from PubChem BioAssay (NCI).
